Laboratory results taken from patent publication US20230248788A1, “COMPOSITIONS AND RELATED METHODS FOR SUPPORTING COMPANION ANIMALS WITH GASTROINTESTINAL DISORDERS” (priority 2020, published 2023).
In brackets after ≈: the same amount, converted by molar mass. Where two headings read alike, the source gives them in different places.

Assays:
[1] = tested on: L. brevis WF-1B; settings: EFSA microbiological cut-off value; cited from earlier work
[2] = tested on: L. brevis WF-1B; test: Antibiotic susceptibility assay, broth microdilution; format: cell-based, Levilactobacillus brevis; settings: for MIC: antibiotic against L. brevis WF-1B; for susceptibility of L. brevis WF-1B to the antibiotic: MIC compared with EFSA cut-off value
Protocol: Broth microdilution was used to determine the susceptibility of the L. brevis WF-1B isolate against eight commonly used clinical antibiotics. Broth micro-dilution was performed following the methods according to: International Organization for Standardization, Milk and milk products—Determination of the minimal inhibitory concentration (MIC) of antibiotics applicable to bifidobacteria and non-enterrococcal lactic acid bacteria (LAB) (ISO 10932:2012). Antibiotic stock solutions were prepared following the methods according to: CLSI, Performance Standards for Antimicrobial Susceptibility Testing, 23rd edition, CLSI Standard M100, Wayne, Pa.: Clinical and Laboratory Standards Institute; 2013. The measured minimum inhibitory concentrations (MICs) and microbiological cut-off values from the antibiotic susceptibility assays for L. brevis WF-1B are shown below in Table 5.

[3] = Levilactobacillus brevis, WF1B, read-out: MIC

CC1(C)S[C@@H]2[C@H](NC(=O)[C@H](N)c3ccccc3)C(=O)N2[C@H]1C(=O)O [Ampicillin]
Cut-off value [1]: 2 µg/mL
MIC [2, 3]: 8 mg/L (≈ 22.9 µM)
susceptibility of L. brevis WF-1B to the antibiotic [2]: resistant

O=C(N[C@H](CO)[C@H](O)c1ccc([N+](=O)[O-])cc1)C(Cl)Cl [Chloramphenicol]
Cut-off value [1]: 4 µg/mL
MIC [2, 3]: 16 mg/L (≈ 49.5 µM)
susceptibility of L. brevis WF-1B to the antibiotic [2]: resistant

CCC[C@@H]1C[C@@H](C(=O)N[C@@H]([C@H]2O[C@H](SC)[C@H](O)[C@@H](O)[C@H]2O)[C@H](C)Cl)N(C)C1 [Clindamycin]
MIC [2, 3]: 8 mg/L (≈ 18.8 µM)

CC[C@H]1OC(=O)[C@H](C)[C@@H](O[C@H]2C[C@@](C)(OC)[C@@H](O)[C@H](C)O2)[C@H](C)[C@@H](O[C@@H]2O[C@H](C)C[C@H](N(C)C)[C@H]2O)[C@](C)(O)C[C@@H](C)C(=O)[C@H](C)[C@@H](O)[C@]1(C)O [Erythromycin]
Cut-off value [1]: 1 µg/mL
MIC [2, 3]: 0.83 mg/L (≈ 1.13 µM)
susceptibility of L. brevis WF-1B to the antibiotic [2]: sensitive

NC[C@H]1O[C@H](O[C@H]2[C@H](O)[C@@H](O[C@H]3O[C@H](CO)[C@@H](O)[C@H](N)[C@H]3O)[C@H](N)C[C@@H]2N)[C@H](O)[C@@H](O)[C@@H]1O [Kanamycin]
MIC [2, 3]: 85 mg/L (≈ 175 µM)

[H]/N=C(/N)N[C@H]1[C@H](O)[C@@H](O)[C@H](O[C@@H]2O[C@@H](C)[C@](O)(C=O)[C@H]2O[C@@H]2O[C@@H](CO)[C@H](O)[C@@H](O)[C@@H]2NC)[C@@H](N/C(N)=N\[H])[C@@H]1O [Streptomycin]
Cut-off value [1]: 64 µg/mL
MIC [2, 3]: 8 mg/L (≈ 13.8 µM)
susceptibility of L. brevis WF-1B to the antibiotic [2]: sensitive

CN(C)[C@@H]1C(O)=C(C(N)=O)C(=O)[C@@]2(O)C(O)=C3C(=O)c4c(O)cccc4[C@@](C)(O)[C@H]3C[C@@H]12 [Tetracycline]
MIC [2, 3]: 64 mg/L (≈ 144 µM)

Gentamicin
Cut-off value [1]: 16 µg/mL
susceptibility of L. brevis WF-1B to the antibiotic [2]: sensitive
MIC [2]: 3 mg/L
